Test [1] has as its system ICSBP. The test is described as follows: Western blot of ICSBP in THP-1 nuclear extracts (Ets-2 DNA element beads). Type of test: cell-based, human. The text has this:
Of the transcription factors that have been analyzed, two factors, ICSBP and c-Rel, seem to be affected by Compound 1/Compound 2 treatment. ICSBP binds indirectly to the Ets-2 site. The primary NFκB trans-activator for IL-12 is the c-Rel/p50 heterodimer. Other dimers (p65/p50 and p50/p50) either lack activity or have inhibitory functions. Thus, c-Rel plays a role in IL-12 transcription as a result of both activation through NFκB and its interaction with ICSBP. […] The membranes were blocked with 5% milk in TBST buffer and then incubated with anti-c-Rel, anti-p65, anti-p50, anti-ICSBP or anti-PU-1 antibody (all the antibodies were purchased from Santa Cruz) at a dilution of 1:500 for 1 h at room temperature or overnight at 4° C. The membranes were washed and incubated with Horseradish Peroxidase-conjugated anti-rabbit IgG or anti-mouse IgG (Amersham, England) at a dilution of 1:2000 at room temperature for 1 h.
The transcription factor ICSBP binds to the Ets-2 element indirectly through binding to PU-1. Nuclear extracts were bound to Ets-2 DNA element beads, the beads isolated to separate bound from free protein, and the proteins analyzed on Western blots using antibodies to either ICSBP or PU-1. Conjugation of Ets-2 DNA to beads was accomplished by the following method. Biotinylated DNA fragment encompassing the IL-12 p40 Ets-2 site (−292 to −196) were synthesized from the 1.3 kb wild-type human IL-12 p40 reporter by PCR using a biotinylated primer as detailed in The Journal of Immunology, 2000, vol 165. pages 271-279. PCR products were purified by the Qiaquick Kit (Qiagen, Chatsworth, Calif.). Two μg of biotinylated DNA were conjugated to 100 μl of streptavidin-hound magnetic beads (Dynabeads, M280, Dynal, Lake Success, N.Y.) in buffer containing 10 mM Tris-HCL, pH 8.0, 1 mM EDTA, 0.1 M NaCl. […] Eluted materials were separated by 10% SDS-PAGE and detected by immunoblot analysis using anti-ICSBP or anti-PU-1 antibody.

Test [2] relates to human IL-12 p35 promoter. The test is described as follows: IL-12 p35 promoter/luciferase reporter in transiently transfected RAW264.7 cells. The note with it: for p35 promoter-driven luciferase expression: RAW264.7, IFN-γ/LPS or IFN-γ/SAC. It counts as cell-based, murine. Here is the method: As a result of the Northern blot findings, we undertook a study of the p35 and p40 promoter activities. We transiently transfected the murine macrophage cell line RAW264.7 with DNA constructs in which the p35 and p40 promoters directed expression of the luciferase reporter gene. The RAW264.7 cell line was obtained from American Type Culture Collection (Manassas, Va.) and was cultured in DMEM (ATCC, Manassas, Va.) supplemented with 10% FCS (ATCC, Manassas, Va.), and 1% penicillin/Streptomycin (Gibco-BRL, New York, N.Y.).
Both p35 and p40 promoter-driven luciferase production in response to stimulation were determined in the presence or absence of Compound 1 and Compound 2. To construct the human IL-12 p35 and p40 promoter/luciferase reporter constructs, we generated p35 (−1.5 kb to +3 bp) and p40 (−1.3 kb to +56 bp) promoter fragments, which contained several sequence motifs of the human IL-12 p35 and p40 genes. The fragments were generated by PCR from genomic DNA obtained from human PBMC using primers as follows: IL-12 p35 1.5 kb-F: 5′-[…]-3′(SEQ ID NO:3) and IL-12 p35 1.5 kb-R: 5′-[…]-3′ (SEQ ID NO:4); IL-12 p40 −1.3 kb-F: 5′-[…]-3′ (SEQ ID NO:5) and IL-12 p40 1.3 kb-R: 5′-[…]-3′ (SEQ ID NO:6). The deletion in the p40 promoter reporter constructs were generated by PCR with primers as follows: IL-12 p40 −250 bp to +56 bp (p40/−250 bp) F: 5′-[…]-3′(SEQ ID NO:7) and IL-12 p40 −250 bp to +56 bp (p401/−250 bp) R: 5′-TGCTCTGGGCAGGACGGAG-3′ (SEQ ID NO:8); IL-12 p40 −150 bp to +56 bp (p40/−150 bp) F: 5′-[…]-3′ (SEQ ID NO:9) and IL-12 p40 −150 bp to +56 bp (p40/−150 bp) R: 5′-TGCTCTGGGCAGGACGGAG-3′(SEQ ID NO:10). […]
Cells were co-transfected with the vector pCMV (BD Biosciences Clontech) in which the constitutively active CMV promoter directs β-galactosidase expression for the monitoring of transfection efficiency. Luciferase and β-galactosidase activity were determined in cell extracts prepared according to the Luciferase assay system (Promega) and Luminescent n-gal Detection system (BD Biosciences Clontech). […]

Data on two compounds can be found in patent US9910031B2, “Compositions and methods for modulating c-Rel-dependent cytokine production” (Synta Pharmaceuticals Corporation, priority 2003, dated 2018).

`Cc1cccc(C=NNc2cc(N3CCOCC3)nc(OCCc3ccccn3)n2)c1` [Compound 2, N-(3-methyl-benzylidene)-N′-[6-morpholin-4-yl-2-(2-pyridin-2-yl-ethoxy)-pyrimidin-4-yl]-hydrazine]: in test [1], the ICSBP expression entry is “reduced” and the “ICSBP in the nuclei of treated cells” value is on record as “reduced”. In addition, in test [2], the “p35 promoter-driven luciferase expression” value was “suppressed”. The “p35 promoter-driven luciferase expression, comparison between compounds” value in test [2] (RAW264.7, stimulated by IFN-γ/LPS, Compound 2 compared with Compound 1) is “inhibited more effectively”.

Take `C(=NNc1nc(OCCc2ccccn2)nc(N2CCOCC2)n1)c1c[nH]c2ccccc12` [Compound 1, N-(1H-indol-3-ylmethylene)-N′-[4-morpholin-4-yl-6-(2-pyridin-2-yl-ethoxy)-[1,3,5]triazin-2-yl]-hydrazine]: in test [1] (THP-1 cells), the “amount of ICSBP protein in nuclear extracts (FIG. 5)” value was “significant reduction”. The “p35 promoter-driven luciferase expression” value in test [2] is reported as “suppressed”.
